Assay results: patent US10344039B2, “Macrocyclic spirocarbamate derivatives as factor XIa inhibitors, pharmaceutically acceptable compositions and their use” (MERCK SHARP & DOHME CORP., priority 2015, dated 2019)

Columns and labels:
[1] = molecular target: T1, purified human Factor XIa (Homo sapiens, UniProt P03951); test: Factor XIa Assay; format: biochemical; conditions: purified human Factor XIa 40 pM; substrate Z-Gly-Pro-Arg-AFC 100 μM; 50 mM HEPES pH 7.4; read-out: Hu FXIa Ki
T1 construct: purified human Factor XIa; purchased Sekisui Diagnostics
Protocol: The effectiveness of a compound of the present invention as an inhibitor of Coagulation Factor XIa can be determined using a relevant purified serine protease, and an appropriate synthetic substrate. The rate of hydrolysis of the chromogenic or fluorogenic substrate by the relevant serine protease was measured both in the absence and presence of compounds of the present invention. Assays were conducted at room temperature or at 37° C. […] A decrease in the rate of fluorescence change in the presence of inhibitor is indicative of enzyme inhibition. Such methods are known to one skilled in the art. The results of this assay are expressed as the inhibitory constant, Ki.
Factor XIa determinations were made in 50 mM HEPES buffer at pH 7.4 containing 150 mM NaCl, 5 mM CaCl2, and 0.1% PEG 8000 (polyethylene glycol; JT Baker or Fisher Scientific). Determinations were made using purified human Factor XIa at a final concentration of 40 pM (Sekisui Diagnostics) and he synthetic substrate, Z-Gly-Pro-Arg-AFC, TFA salt (Sigma #C0980) at a concentration of 100 μM.
Activity assays were performed by diluting a stock solution of substrate at least tenfold to a final concentration ≤0.1 Km into a solution containing enzyme or enzyme equilibrated with inhibitor. Times required to achieve equilibration between enzyme and inhibitor were determined in control experiments. Initial velocities of product formation in the absence (Vo) or presence of inhibitor (Vi) were measured. Assuming competitive inhibition, and that unity is negligible compared Km/[S], [I]/e, and [I]/e (where [S], [I], and e respectively represent the total concentrations, of substrate, inhibitor and enzyme), the equilibrium constant (Ki) for dissociation of the inhibitor from the enzyme can be obtained from the dependence of Vo/Vi on [I] shown in the following equation. Vo/Vi=1+[I]/Ki
The activities shown by this assay indicate that the compounds of the invention may be therapeutically useful for treating or preventing various cardiovascular and/or cerebrovascular thromboembolic conditions in patients suffering from unstable angina, acute coronary syndrome, refractory angina, myocardial infarction, transient ischemic attacks, atrial fibrillation, stroke such as thrombotic stroke or embolic stroke, venous thrombosis, coronary and cerebral arterial thrombosis, cerebral and pulmonary embolism, atherosclerosis, deep vein thrombosis, disseminated intravascular coagulation, and reocclusion or restenosis of recanalized vessels. The Ki values measured for each of the example compounds of the invention using this assay are reported in the tables above (as “Hu FXIa Ki (nM)”).

[2] = molecular target: T2, purified Human plasma kallikrein (Homo sapiens, UniProt P03952); test: Kallikrein Assay; format: biochemical; conditions: purified Human plasma kallikrein 0.5 nM; substrate Acetyl-K-P-R-AFC; 50 mM HEPES pH 7.4; Ki from IC50 by Cheng Prusoff equation; read-out: Hu P. Kallikrein
T2 construct: yields a heavy chain (371 amino acids) and a light chain (248 amino acids); purchased Enzyme Research Laboratories
Protocol: The effectiveness of a compound of the present invention as an inhibitor of Kallikrein can be determined using a relevant purified serine protease, and an appropriate synthetic substrate. The rate of hydrolysis of the chromogenic or fluorogenic substrate by the relevant serine protease was measured both in the absence and presence of compounds of the present invention. Assays were conducted at room temperature or at 37° C. […] A decrease in the rate of fluorescence change in the presence of inhibitor is indicative of enzyme inhibition. Such methods are known to one skilled in the art. The results of this assay are expressed as the inhibitory constant, Ki. Kallikrein determinations were made in 50 mM HEPES buffer at pH 7.4 containing 150 mM NaCl, 5 mM CaCl2, and 0.1% PEG 8000 (polyethylene glycol; Fisher Scientific). Determinations were made using purified Human plasma kallikrein at a final concentration of 0.5 nM (Enzyme Research Laboratories) and the synthetic substrate, Acetyl-K—P-R-AFC (Sigma # C6608) at a concentration of […]. Activity assays were performed by diluting a stock solution of substrate at least tenfold to a final concentration ≤0.2 Km into a solution containing enzyme or enzyme equilibrated with inhibitor. Times required to achieve equilibration between enzyme and inhibitor were determined in control experiments. The reactions were performed under linear progress curve conditions and fluorescence increase measured at 405 Ex/510 Em nm. Values were converted to percent inhibition of the control reaction (after subtracting 100% Inhibition value). IC50 was determined by inflection point from a four parameter logistic curve fit. Ki was calculated using the Cheng Prusoff equation, Ki=IC50/(1+([S]/Km)). The activities shown by this assay indicate that the compounds of the invention may be therapeutically useful for treating or preventing various cardiovascular and/or cerebrovascular thromboembolic conditions in patients suffering from unstable angina, acute coronary syndrome, refractory angina, myocardial infarction, transient ischemic attacks, atrial fibrillation, stroke such as thrombotic stroke or embolic stroke, venous thrombosis, coronary and cerebral arterial thrombosis, cerebral and pulmonary embolism, atherosclerosis, deep vein thrombosis, disseminated intravascular coagulation, and reocclusion or restenosis of recanalized vessels.

T1 sequence (P03951 388-625 limits assumed): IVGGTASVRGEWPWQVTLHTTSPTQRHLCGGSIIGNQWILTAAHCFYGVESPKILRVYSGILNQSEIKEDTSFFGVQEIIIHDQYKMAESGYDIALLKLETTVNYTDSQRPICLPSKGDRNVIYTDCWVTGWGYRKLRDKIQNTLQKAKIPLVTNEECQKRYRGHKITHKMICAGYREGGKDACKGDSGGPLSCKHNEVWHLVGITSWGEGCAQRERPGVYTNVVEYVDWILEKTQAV
T1 sequence (P03951 19-387 partner limits assumed): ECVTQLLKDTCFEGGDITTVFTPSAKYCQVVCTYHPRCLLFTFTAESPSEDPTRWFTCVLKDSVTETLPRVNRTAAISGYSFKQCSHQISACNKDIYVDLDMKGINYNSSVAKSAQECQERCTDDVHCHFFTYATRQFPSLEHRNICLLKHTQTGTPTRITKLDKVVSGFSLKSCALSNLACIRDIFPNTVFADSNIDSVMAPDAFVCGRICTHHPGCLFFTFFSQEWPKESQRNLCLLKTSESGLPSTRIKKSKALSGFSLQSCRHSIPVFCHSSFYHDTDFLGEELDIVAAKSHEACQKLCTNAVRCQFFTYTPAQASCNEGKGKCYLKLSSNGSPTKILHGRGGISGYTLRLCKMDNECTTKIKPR
T2 sequence (P03952 391-638 limits assumed): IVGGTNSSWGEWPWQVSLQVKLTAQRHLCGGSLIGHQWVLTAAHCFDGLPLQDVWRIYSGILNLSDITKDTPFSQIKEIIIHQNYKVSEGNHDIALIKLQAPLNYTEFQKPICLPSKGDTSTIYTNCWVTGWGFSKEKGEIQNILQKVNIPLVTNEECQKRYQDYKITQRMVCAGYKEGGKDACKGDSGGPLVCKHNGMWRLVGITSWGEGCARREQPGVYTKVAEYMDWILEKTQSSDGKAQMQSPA
T2 sequence (P03952 20-390 partner limits assumed): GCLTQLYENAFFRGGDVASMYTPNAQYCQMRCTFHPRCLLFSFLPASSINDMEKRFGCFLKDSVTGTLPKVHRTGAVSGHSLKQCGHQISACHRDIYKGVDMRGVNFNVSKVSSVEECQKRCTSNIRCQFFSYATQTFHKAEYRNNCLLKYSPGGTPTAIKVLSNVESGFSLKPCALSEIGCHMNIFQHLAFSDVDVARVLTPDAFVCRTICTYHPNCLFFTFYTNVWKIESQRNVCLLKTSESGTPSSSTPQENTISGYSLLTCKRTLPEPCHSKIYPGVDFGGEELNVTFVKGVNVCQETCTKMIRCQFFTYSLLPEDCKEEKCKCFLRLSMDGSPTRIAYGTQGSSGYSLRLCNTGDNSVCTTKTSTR

| Ki [1] | Ki [2] | SMILES |
| --- | --- | --- |
| 0.86 nM | 1.24 nM | COC(=O)Nc1ccc2c(c1)NC(=O)CCCCC(C(=O)N1CC[C@@]3(C1)OC(=O)Nc1ccc(Cl)c(F)c13)c1nc-2c[nH]1 (mixture of isomers) [Example 4, methyl ((Z)-9-((R)-6-chloro-5-fluoro-2-oxo-1,2-dihydrospiro[benzo[d][1,3]oxazine-4,3′-pyrrolidine]-1′-carbonyl)-4-oxo-1^1H-3-aza-1(4,2)-imidazola-2(1,2)-benzenacyclononaphane-2^4-yl)carbamate] |
| 0.25 nM | 0.56 nM | COC(=O)Nc1ccc2c(c1)NC(=O)CCCCC(C(=O)N1CCC[C@@]3(C1)OC(=O)Nc1ccc(Cl)c(F)c13)c1nc-2c(Cl)[nH]1 (mixture of isomers) [Example 8, methyl ((Z)-1^5-chloro-9-((R)-6-chloro-5-fluoro-2-oxo-1,2-dihydrospiro[benzo[d][1,3]oxazine-4,3′-piperidine]-1′-carbonyl)-4-oxo-1^1H-3-aza-1(4,2)-imidazola-2(1,2)-benzenacyclononaphane-2^4-yl)carbamate] |
| 0.34 nM | 0.57 nM | COC(=O)Nc1ccc2c(c1)NC(=O)CCCCC(C(=O)N1CC[C@@]3(C1)OC(=O)Nc1ccc(Cl)c(F)c13)c1nc-2c(Cl)[nH]1 (mixture of isomers) [Example 9, methyl ((Z)-1^5-chloro-9-((R)-6-chloro-5-fluoro-2-oxo-1,2-dihydrospiro[benzo[d][1,3]oxazine-4,3′-pyrrolidine]-1′-carbonyl)-4-oxo-1^1H-3-aza-1(4,2)-imidazola-2(1,2)-benzenacyclononaphane-2^4-yl)carbamate] |
| 0.74 nM | 1.32 nM | COC(=O)Nc1ccc2c(c1)NC(=O)[C@H](C)CCCC(C(=O)N1CC[C@@]3(C1)OC(=O)Nc1ccc(Cl)c(F)c13)c1nc-2c(Cl)[nH]1 (mixture of isomers) [Example 11] |
| 2.7 nM | 1.28 nM | COC(=O)Nc1ccc2c(c1)NC(=O)CCCCC(C(=O)N1CCC[C@@]3(C1)OC(=O)Nc1ccc(Cl)c(F)c13)c1nc-2c(C)[nH]1 (mixture of isomers) [Example 12, methyl ((Z)-9-((R)-6-chloro-5-fluoro-2-oxo-1,2-dihydrospiro[benzo[d][1,3]oxazine-4,3′-piperidine]-1′-carbonyl)-1^5-methyl-4-oxo-1^1H-3-aza-1(4,2)-imidazola-2(1,2)-benzenacyclononaphane-2^4-yl)carbamate] |
| 3.93 nM | 1.22 nM | O=C1CCCCC(C(=O)N2CC[C@@]3(C2)OC(=O)Nc2ccc(Cl)c(F)c23)c2cc(ccn2)-c2cc3ccc(=O)[nH]c3cc2N1 (mixture of isomers) [Example 26, 3-((R)-6-chloro-5-fluoro-2-oxo-1,2-dihydrospiro[benzo[d][1,3]oxazine-4,3′-pyrrolidine]-1′-carbonyl)-1^1,1^2-dihydro-9-aza-1(6,7)-quinolina-2(4,2)-pyridinacyclononaphane-1^2,8-dione] |
| 13 nM | 0.6 nM | O=C1CCCCC(C(=O)N2CCC[C@@]3(C2)OC(=O)Nc2ccc(Cl)c(F)c23)c2cc(ccn2)-c2cc3ccc(=O)[nH]c3cc2N1 (mixture of isomers) [Example 27, 3-((R)-6-chloro-5-fluoro-2-oxo-1,2-dihydrospiro[benzo[d][1,3]oxazine-4,3′-piperidine]-1′-carbonyl)-1^1,1^2-dihydro-9-aza-1(6,7)-quinolina-2(4,2)-pyridinacyclononaphane-1^2,8-dione] |
| 4.94 nM | 15.5 nM | CCOC(=O)C1CCCCC(C(=O)N2CCC[C@@]3(C2)OC(=O)Nc2ccc(Cl)c(F)c23)c2nc(c[nH]2)-c2ccc(NC(=O)OC)cc2N1 (mixture of isomers) [Example 32, ethyl (Z)-9-((R)-6-chloro-5-fluoro-2-oxo-1,2-dihydrospiro[benzo[d][1,3]oxazine-4,3′-piperidine]-1′-carbonyl)-2^4-((methoxycarbonyl)amino)-1^1H-3-aza-1(4,2)-imidazola-2(1,2)-benzenacyclononaphane-4-carboxylate] |
| 2.37 nM | 1.99 nM | COC(=O)Nc1ccc2c(c1)NC(=O)CCCC[C@@H](C(=O)N1CC[C@@]3(C1)OC(=O)Nc1ccc(Cl)cc13)c1nc-2c[nH]1 (single isomer, unassigned) [Example 1a] |
| 0.37 nM | 0.69 nM | COC(=O)Nc1ccc2c(c1)NC(=O)CCCC[C@@H](C(=O)N1CC[C@@]3(C1)OC(=O)Nc1ccc(Cl)cc13)c1nc-2c(Cl)[nH]1 (single isomer, unassigned) [Example 6a] |
| 16 nM | 32 nM | COC(=O)Nc1ccc2c(c1)NC(=O)CCCC[C@H](C(=O)N1CC[C@@]3(C1)OC(=O)Nc1ccc(Cl)cc13)c1nc-2c(Cl)[nH]1 (single isomer, unassigned) [Example 6b] |
| 0.93 nM | 1.29 nM | COC(=O)Nc1ccc2c(c1)NC(=O)CCCC[C@@H](C(=O)N1CCC[C@@]3(C1)OC(=O)Nc1ccc(Cl)c(F)c13)c1nc-2c(C)[nH]1 (single isomer, unassigned) [Example 12b] |
| 31.1 nM | 1.7 nM | COC(=O)Nc1ccc2c(c1)NC(=O)C(C)CCCC(C(=O)N1CCC[C@@]3(C1)OC(=O)Nc1ccc(Cl)cc13)c1cc-2ccn1 (single isomer, unassigned) [Example 15a] |
| 44.2 nM | 8.5 nM | COC(=O)Nc1ccc2c(c1)NC(=O)CCCC[C@@H](C(=O)N1CC[C@@]3(C1)OC(=O)Nc1ccc(Cl)c(F)c13)c1cccc-2n1 (single isomer, unassigned) [Example 23b] |
| 0.62 nM | 1.42 nM | CCOC(=O)C1CCCCC(C(=O)N2CCC[C@@]3(C2)OC(=O)Nc2ccc(Cl)c(F)c23)c2nc(c[nH]2)-c2ccc(NC(=O)OC)cc2N1 (single isomer, unassigned) [Example 32b] |
| 2.74 nM | 0.82 nM | COC(=O)Nc1ccc2c(c1)NC(=O)CCCC[C@@H](C(=O)N1CCC[C@@]3(C1)OC(=O)Nc1ccc(Cl)cc13)c1nc-2c[nH]1 [Example 3a, methyl ((R,Z)-9-((R)-6-chloro-2-oxo-1,2-dihydrospiro[benzo[d][1,3]oxazine-4,3′-piperidine]-1′-carbonyl)-4-oxo-1^1H-3-aza-1(4,2)-imidazola-2(1,2)-benzenacyclononaphane-2^4-yl)carbamate] |
| 0.42 nM | 0.39 nM | COC(=O)Nc1ccc2c(c1)NC(=O)CCCC[C@@H](C(=O)N1CCC[C@@]3(C1)OC(=O)Nc1ccc(Cl)cc13)c1nc-2c(Cl)[nH]1 [Example 7a, methyl ((R,Z)-1^5-chloro-9-((R)-6-chloro-2-oxo-1,2-dihydrospiro[benzo[d][1,3]oxazine-4,3′-piperidine]-1′-carbonyl)-4-oxo-11H-3-aza-1(4,2)-imidazola-2(1,2)-benzenacyclononaphane-2^4-yl)carbamate] |
